Experimental data: patent publication US20170190671A1, “BIS(ARYL)CATECHOL DERIVATIVES AS HERBICIDES” (E I DU PONT DE NEMOURS AND COMPANY, priority 2014, published 2017)

Experiments:
Test in all cases: Test E preemergence
Assay type in all cases: in vivo
Conditions in all cases: scale 0 to 100
[1] = system: morningglory (Ipomoea coccinea)
Outline: (§1)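 Test chemicals, formulated in a non-phytotoxic solvent with surfactant, are applied to silt loam soil after sowing or sprayed over young plants (1–4 leaves) in potting medium. Plants are then kept in a greenhouse for 14 to 21 days and scored 0–100 for control.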

[2] = system: field bindweed (Convolvulus arvensis)
Outline: as §1

[3] = system: dayflower (Virginia (VA) dayflower, Commelina virginica)
Outline: as §1

corn (Zea mays) = system: corn (Zea mays)
Outline: as §1

SMILES | Plant response rating, Morningglory ([1]; 31 g ai/ha) | Plant response rating, Morningglory ([1]; 62 g ai/ha) | Plant response rating, Morningglory ([1]; 125 g ai/ha) | Plant response rating, Field Bindweed ([2]; 16 g ai/ha) | Plant response rating, Field Bindweed ([2]; 31 g ai/ha) | Plant response rating, Field Bindweed ([2]; 62 g ai/ha) | Plant response rating, Field Bindweed ([2]; 125 g ai/ha) | Plant response rating, Dayflower, VA ([3]; 16 g ai/ha) | Plant response rating, Dayflower, VA ([3]; 31 g ai/ha) | Plant response rating, Dayflower, VA ([3]; 62 g ai/ha) | Plant response rating, Dayflower, VA ([3]; 125 g ai/ha) | Plant response rating, Corn (corn (Zea mays); 16 g ai/ha) | Plant response rating, Corn (corn (Zea mays); 31 g ai/ha) | Plant response rating, Corn (corn (Zea mays); 62 g ai/ha) | Plant response rating, Corn (corn (Zea mays); 125 g ai/ha) | Plant response rating, Morningglory ([1]; 16 g ai/ha)
Fc1ccc(F)c(Oc2ncc(Cl)cn2)c1Oc1ncc(Cl)cn1 [Compound 34, 2,2′-[(3,6-difluoro-1,2-phenylene)bis(oxy)]bis[5-chloropyrimidine]] | 20 | 50 | 65 | 0 | 0 | 0 | 0 | 0 | 30 | 20 | 90 | 0 | 0 | 0 | 0 | –
Fc1cccc(Oc2ncc(Cl)cn2)c1Oc1ncc(Cl)cn1 [Compound 21, 2,2′-[[3-fluoro-1,2-phenylene]bis(oxy)]bis[5-chloropyrimidine]] | 50 | 90 | 80 | 0 | 0 | 15 | 40 | 0 | 0 | 25 | 95 | 0 | 0 | 10 | 50 | 10
Clc1cnc(Oc2cccc(Br)c2Oc2ncc(Cl)cn2)nc1 [Compound 19, 2,2′-[[3-bromo-1,2-phenylene]bis(oxy)]bis[5-chloropyrimidine]] | 0 | 5 | 65 | 0 | 0 | 0 | 10 | 0 | 0 | 5 | 10 | 0 | 0 | 20 | 50 | 0
